Values joined by “and” are separate entries in the source; they are usually repeats but may differ in a detail not shown here. Equal values may be shown once.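 The compound was tested at five concentrations on cells cultured in 96-well plates, with a 48-hour exposure period. GI50 marks 50% less growth. TGI is the concentration that stops growth completely.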
Experiments:
Test in all cases: DTP human tumour cell line panel, 48 h
[1] = tested on: 786-0 renal
[2] = tested on: CCRF-CEM leukemia
[3] = tested on: HCC-2998 colon
[4] = tested on: HCT-116 colon
[5] = tested on: LOX IMVI melanoma
[6] = tested on: NCI-H460 lung
[7] = tested on: NCI-H522 lung
[8] = tested on: RXF 393 renal
[9] = tested on: DU-145 prostate
[10] = tested on: MCF7 breast

CC1=Nc2c([nH]c(=S)[nH]c2=O)NC(c2ccc(Cl)c(Cl)c2)C1 (centres undefined)
TGI [1]: 32.5 µM | TGI [2]: > 100 µM | TGI [3]: 32 µM | TGI [4]: 30.1 µM | TGI [5]: 40.3 µM | TGI [6]: > 100 µM | TGI [7]: > 100 µM | TGI [8]: 38.2 µM

C[C@H]1COC2(c3ccccc3)CCC(=O)N12 (some centres undefined)
TGI [1]: > 100 µM | TGI [2]: > 100 µM | TGI [4]: > 100 µM | TGI [5]: > 100 µM | TGI [6]: > 100 µM | TGI [8]: > 100 µM

CC(C)c1cc(CNc2nc(Nc3cc(C4CC4)[nH]n3)cc(N3CCN(C)CC3)n2)on1
GI50 [1]: 1.43 µM and 0.223 µM | TGI [1]: > 10 µM and 3.72 µM | GI50 [2]: 4.62 µM and 1.02 µM | TGI [2]: > 100 µM | GI50 [9]: 1.57 µM and 0.205 µM | GI50 [3]: 2.79 µM and 0.343 µM | TGI [3]: > 10 µM and 6.39 µM | TGI [4]: > 10 µM and 44.6 µM | TGI [10]: > 10 µM and 13.1 µM | TGI [6]: > 10 µM and 1.42 µM | GI50 [7]: 0.422 µM and 0.992 µM | TGI [7]: 4.3 µM and 3.83 µM

CC(=O)OCC(OC(C)=O)C(OC(C)=O)C(OC(C)=O)C(=O)CNn1c(-c2ccccc2)nc2ccc(Br)cc2c1=O (centres undefined)
TGI [1]: > 100 µM | TGI [2]: > 100 µM | TGI [4]: > 100 µM | TGI [5]: > 100 µM | TGI [6]: > 100 µM | TGI [7]: > 100 µM | TGI [8]: > 100 µM

CCCCSCc1nc2nc(Cl)c(Cl)nc2[nH]1
TGI [1]: 69.3 µM | TGI [2]: 63.6 µM | TGI [9]: > 100 µM | TGI [4]: 40.6 µM | TGI [5]: 44.5 µM | TGI [10]: 68 µM | TGI [6]: 53.8 µM | TGI [7]: 42.6 µM | TGI [8]: 68.8 µM

OCC(O)COc1c(Cl)ccc(Cl)c1Cl (centres undefined)
TGI [1]: > 100 µM | TGI [2]: > 100 µM | TGI [3]: > 100 µM | TGI [4]: > 100 µM | TGI [5]: > 100 µM | TGI [6]: > 100 µM | TGI [7]: > 100 µM | TGI [8]: > 100 µM

COc1ccc(NC(=O)Nc2ccc(Nc3nc(C)cc(Nc4ccc(C)cc4)n3)cc2)cc1
GI50 [1]: 0.253 µM | TGI [1]: 0.702 µM | GI50 [9]: 1.16 µM | TGI [9]: 2.59 µM | GI50 [3]: 1.89 µM | TGI [3]: 3.59 µM | GI50 [5]: 1.79 µM | TGI [5]: 3.35 µM | GI50 [7]: 1.93 µM | TGI [7]: 4.42 µM | GI50 [8]: 1.61 µM | TGI [8]: 3.12 µM

CN(C)c1nc(N(C)C)n2nc(-c3ccccc3[N+](=O)[O-])nc2n1
TGI [1]: > 100 µM | TGI [2]: > 100 µM | TGI [3]: > 100 µM | TGI [4]: 89.2 µM | TGI [5]: > 100 µM | TGI [6]: > 100 µM | TGI [7]: > 100 µM | TGI [8]: > 100 µM

NS(=O)(=O)c1ccc(NC(=O)CC(=O)Nc2ccc(S(N)(=O)=O)cc2)cc1
TGI [1]: > 100 µM | TGI [2]: > 100 µM | TGI [3]: > 100 µM | TGI [4]: > 100 µM | TGI [5]: > 100 µM | TGI [7]: > 100 µM

O=C1OC(c2ccccc2)=N/C1=C\c1c(O)cc(O)cc1O
TGI [1]: > 100 µM | TGI [2]: > 100 µM | TGI [4]: > 100 µM | TGI [5]: > 100 µM | TGI [7]: > 100 µM | TGI [8]: > 100 µM

CCOC(=O)C1=C(NC(C)(C)C)OCC1=O
TGI [1]: > 100 µM | TGI [3]: > 100 µM | TGI [4]: > 100 µM | TGI [5]: > 100 µM | TGI [6]: > 100 µM | TGI [7]: > 100 µM

CCOC(=O)c1cc2cc(NC(=O)c3cc4cc([N+](=O)[O-])ccc4n3C)ccc2n1C
GI50 [1]: 17.6 µM | TGI [1]: 31.9 µM | GI50 [2]: 7.94 µM | TGI [2]: > 100 µM | GI50 [4]: 14.6 µM | TGI [4]: 30.3 µM | GI50 [5]: 13.1 µM | TGI [5]: 28 µM | GI50 [10]: 44.2 µM | TGI [10]: > 100 µM | GI50 [6]: 30.6 µM | TGI [6]: > 100 µM | GI50 [7]: > 100 µM | TGI [7]: > 100 µM | GI50 [8]: 41 µM | TGI [8]: > 100 µM

— PubChem BioAssay (NCI)
